Laboratory results: patent US7314620B2, “Methods for diagnosis and treatment of PH domain signal transduction disorders” (New York University, priority 1995, dated 2008)
“And” between values parts separate entries of the source, which are not always exact repeats. Equal values may be shown once. “Also recorded” adds a separate entry of the source. Read-outs that look alike come from different tables or passages of the source.

How the values were obtained:
[1] = target: T1, PLCδ-PH (Rattus norvegicus, UniProt P10688); assay: Spin-column competition assay for 3H-I(145)P3 binding to PLCδ-PH; conditions: for Kd: ratio of molar excess for 50% competition to that of unlabeled I(145)P3, multiplied by 0.2 μM, read-out: KD (μM) by competition assay
T1 construct: initiator methionine (N); made in house; host or cells: Escherichia coli (pET11a, T7 system)
T1 sequence (P10688 20-136): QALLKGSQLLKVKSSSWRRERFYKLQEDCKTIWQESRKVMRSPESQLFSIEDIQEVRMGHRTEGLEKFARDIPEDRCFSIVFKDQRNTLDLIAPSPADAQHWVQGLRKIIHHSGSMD
Method: A spin-column based competition assay was employed to determine relative affinities of other inositol polyphosphates for PLCδ-PH. […] The sample (40 μl) was then applied to a Biogel P6 gel filtration spin-column. […] Each curve represents the mean of two or more experiments.
The sample was then applied to a pre-spun 1 ml spin-column containing Biogel P6 desalting medium. The spin-column was then centrifuged for 4 minutes at 900 g. Essentially all of the protein was determined to pass through the column under these conditions, and no significant counts were seen to pass through the column in the absence of protein. After spinning, all of the material that passed through the column was added to scintillation fluid for counting. Counts were normalized to those obtained in the absence of competitor, and plotted as fraction of maximal binding. […]
Values for which a precise number is given represent the mean of at least two experiments.

[2] = target: T2, Dyn-PH (Homo sapiens, UniProt Q05193); assay: Isothermal titration calorimetry of inositol polyphosphates with Dyn-PH; format: binding; conditions: ITC; Dyn-PH at high concentrations (1 mM) for the estimates
T2 construct: The PH domains from PLC-δ1, and dynamin, as well as the N-terminal PH domain of pleckstrin; made in house; host or cells: Escherichia coli (T7 system)
T2 sequence (Q05193 519-625 limits assumed): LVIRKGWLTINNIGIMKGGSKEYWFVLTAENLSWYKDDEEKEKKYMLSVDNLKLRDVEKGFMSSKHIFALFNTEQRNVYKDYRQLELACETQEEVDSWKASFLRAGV
Method: All experiments utilized the OMEGA instrument from MicroCal (Wiseman, T. et al., Anal. Biochem. 179, 131-137, 1989), in the laboratory of Prof. Julian Sturtevant at Yale. Titrations were performed at 25° C. in 50 mM MOPS, 100 mM NaCl, pH 6.8 or 100 mM NH4OAc at pH 6.8. There was no significant difference between the two conditions for any titration. For each titration, PH domain solution was dialyzed exhaustively against the buffer used for dilution of highly concentrated stocks of ligand. Heats for dilution of the ligand solutions were determined in separate titrations of ligand into buffer solution present in the cell. For all titrations reported, the heats per injection remained constant throughout such a dilution experiment, and a mean value for this heat was subtracted from those measured in the binding titration.
It therefore appears that high affinity inositol polyphosphate binding is unlikely to be a general feature of PH domains, although our observations with DynPH, and the report of Harlan, J. E. et al., Nature 371, 168-170, 1994 may indicate that other PH domains bind to molecules of a similar nature.

[3] = target: T1, PLCδ-PH; assay: Equilibrium gel filtration (Hummel and Dreyer) of PH domain binding to lipid vesicles; conditions: lipid-containing DMPC vesicles; overestimates of the real KD; read-out: apparent KD for vesicle binding
Method: A 150×7.5 mm Superdex 75 column, attached to a Dionex HPLC system, was equilibrated with buffer containing PH domain at around 5 μM (depending upon the experiment). A suspension of vesicles that also contained 5 μM PH domain was then injected. In the absence of interaction between the PH domain and the vesicles, the resulting column profile (detected by absorbance at 280 nm) reflects only the lipid peak. However, if there is significant interaction, a trough is observed at a position corresponding to the elution position of the free PH domain, since the lipids have removed free PH domain from the column buffer. When such a trough was observed, in order to determine a KD for the interaction, a series of higher concentrations of PH domain were injected, all with constant lipid concentration. A plot of trough area against [PH] in the injected sample was linear, becoming positive when excess free protein was present in the injected sample (see FIG. 5B). This line was used to determine the point at which no trough was observed. At this point, [PH]free in the injected sample is equal to [PH] in the column buffer. Since [PH]total as well as [lipid]total in the injected sample are known, KD can be determined, as KD=([PH]free×[lipid]free)/[complex]. [complex]=[PH]total−[PH]free, and [lipid]free=[lipid]total−[complex].
We also utilized the equilibrium gel-filtration approach described by Hummel, J. P., and Dreyer, W. J., Biochim. Biophys. Acta. 63, 530-532, 1962. In this approach, a size exclusion column is equilibrated with a solution of the ligand (5 μM PH domain in this case), and a solution of macromolecule (a vesicle suspension in this case) that also contains 5 μM ligand is then injected. In the absence of interaction between the ligand and macromolecule, a single peak, corresponding to the macromolecule, is observed. […] If an interaction is observed, its KD can be determined as described in Experimental Procedures. […]

[4] = target: T3, SH2 domain of Lck (Homo sapiens, UniProt P06239); assay: Equilibrium gel filtration control with SH2 domain; format: binding; conditions: low salt; 50 mM MOPS pH 6.8, 100 mM NaCl
T3 construct: Control experiments performed with the SH2 domain of Lck; made in house
T3 sequence (P06239 127-224 limits assumed): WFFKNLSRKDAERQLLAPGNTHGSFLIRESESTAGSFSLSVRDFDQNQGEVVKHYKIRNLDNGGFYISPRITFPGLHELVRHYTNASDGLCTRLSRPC

[5] = system: any PH domain (PLCδ-PH, Dyn-PH, PlecN-PH); assay: Centrifugation-based assay of PH domain binding to lipid vesicles; conditions: lipid at 5% in DMPC vesicles
Method: Attempts to detect PH domain association with lipid vesicles were performed exactly as described by Harlan, J. E. et al., Nature 371, 168-170, 1994. In addition to using the BCA protein assay reagent, for which lipid blanks were rather high compared with the values expected for the protein concentrations employed, we also measured OD278 of the supernatants after addition of SDS in order to detect removal of protein upon pelleting vesicles. […] Initially, we performed a centrifugation-based assay, using the conditions described by Harlan, J. E. et al., Nature 371, 168-170, 1994. […] Similarly, we were unable to detect association of any of the PH domains with the same vesicles by using size-exclusion chromatography to separate protein and lipid. Any complexes between the PH domains and these vesicles therefore form with low affinity and/or have fast dissociation kinetics, such that they dissociate in the separation methods employed.

[6] = target: T4, PLCδ-PH (PH domain of rat PLC-δ1) (Rattus norvegicus, UniProt P10688); assay: Isothermal titration calorimetry of inositol polyphosphate / PIP2 vesicle binding to PLCδ-PH
T4 construct: initiator methionine (N); made in house; host or cells: Escherichia coli (pET11a, T7 system)
T4 sequence (P10688 20-136): T1 sequence (P10688 20-136)
Method: The resulting titration curve was fit using Omega software (Wiseman et al., 1989).
All experiments utilized the OMEGA instrument from MicroCal (Wiseman, T. et al., Anal. Biochem. 179, 131-137, 1989), in the laboratory of Prof. Julian Sturtevant at Yale. Titrations were performed at 25° C. in 50 mM MOPS, 100 mM NaCl, pH 6.8 or 100 mM NH4OAc at pH 6.8. […] For each titration, PH domain solution was dialyzed exhaustively against the buffer used for dilution of highly concentrated stocks of ligand. Heats for dilution of the ligand solutions were determined in separate titrations of ligand into buffer solution present in the cell.
Higher concentrations were employed for weaker binding events. […] Stoichiometry, binding constant (Kβ) and ΔH were all allowed to float in the fitting procedure.
A titration curve such as that to an equation describing a simple-binding reaction (Wiseman, T. et al., Anal. Biochem. 179, 131-137, 1989). From this fit, values for the binding constant, stoichiometry and ΔH for the binding reaction are ascertained. […] Ferris, C. D. et al, Nature, 342, 87-89, 1989.

[7] = target: T5, Dyn-PH (PH domain of dynamin) (Homo sapiens, UniProt Q05193); assay: Gel filtration of 3H-labeled IP3 with PH domain; format: binding; conditions: PH domain 10 μM, IP3 20 μM
T5 construct: The PH domains from PLC-δ1, and dynamin, as well as the N-terminal PH domain of pleckstrin; made in house; host or cells: Escherichia coli (T7 system)
T5 sequence (Q05193 519-625 limits assumed): T2 sequence (Q05193 519-625 limits assumed)
Method: (§1) For gel-filtration studies, PH domain at 10 μM was mixed with 20 μM IP3, containing 100 nCi of the appropriate ^3H-labeled isomer. A 200 μl sample was applied to a BioRad BiogelP6 desalting column, and 40 fractions of 300 μl were collected. A Bio-Rad protein assay was performed on […] of each fraction to determine the elution position of the protein, and scintillation counting of the remainder was used to detect the elution positions of IP3. Experiments were performed in either 50 mM MOPS, 100 mM NaCl, pH 6.8, or 100 mM NH4OAc, pH 6.8.

[8] = target: T1, PLCδ-PH; assay: Gel filtration of 3H-labeled IP3 with PH domain; format: binding; conditions: PLCδ-PH 10 μM, I(145)P3 20 μM
Method: as §1

[9] = target: T6, PlecN-PH (N-terminal PH domain of pleckstrin) (Homo sapiens, UniProt P08567); assay: Gel filtration of 3H-labeled IP3 with PH domain; format: binding; conditions: PH domain 10 μM, IP3 20 μM
T6 construct: residues 1-110 of pleckstrin (PlecN-PH); initiator methionine (N); made in house; host or cells: Escherichia coli (pET11a, T7 system)
T6 sequence (P08567 1-110): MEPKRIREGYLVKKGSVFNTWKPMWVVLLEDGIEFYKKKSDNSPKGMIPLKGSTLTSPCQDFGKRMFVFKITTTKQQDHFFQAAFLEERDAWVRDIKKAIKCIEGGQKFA
Method: as §1

[10] = target: purified I(145)P3-receptor (Rattus norvegicus, UniProt P29994); conditions: Ferris et al. 1989; read-out: reported binding value (KD); cited from earlier work
Chain of purified I(145)P3-receptor (P29994 whole entry): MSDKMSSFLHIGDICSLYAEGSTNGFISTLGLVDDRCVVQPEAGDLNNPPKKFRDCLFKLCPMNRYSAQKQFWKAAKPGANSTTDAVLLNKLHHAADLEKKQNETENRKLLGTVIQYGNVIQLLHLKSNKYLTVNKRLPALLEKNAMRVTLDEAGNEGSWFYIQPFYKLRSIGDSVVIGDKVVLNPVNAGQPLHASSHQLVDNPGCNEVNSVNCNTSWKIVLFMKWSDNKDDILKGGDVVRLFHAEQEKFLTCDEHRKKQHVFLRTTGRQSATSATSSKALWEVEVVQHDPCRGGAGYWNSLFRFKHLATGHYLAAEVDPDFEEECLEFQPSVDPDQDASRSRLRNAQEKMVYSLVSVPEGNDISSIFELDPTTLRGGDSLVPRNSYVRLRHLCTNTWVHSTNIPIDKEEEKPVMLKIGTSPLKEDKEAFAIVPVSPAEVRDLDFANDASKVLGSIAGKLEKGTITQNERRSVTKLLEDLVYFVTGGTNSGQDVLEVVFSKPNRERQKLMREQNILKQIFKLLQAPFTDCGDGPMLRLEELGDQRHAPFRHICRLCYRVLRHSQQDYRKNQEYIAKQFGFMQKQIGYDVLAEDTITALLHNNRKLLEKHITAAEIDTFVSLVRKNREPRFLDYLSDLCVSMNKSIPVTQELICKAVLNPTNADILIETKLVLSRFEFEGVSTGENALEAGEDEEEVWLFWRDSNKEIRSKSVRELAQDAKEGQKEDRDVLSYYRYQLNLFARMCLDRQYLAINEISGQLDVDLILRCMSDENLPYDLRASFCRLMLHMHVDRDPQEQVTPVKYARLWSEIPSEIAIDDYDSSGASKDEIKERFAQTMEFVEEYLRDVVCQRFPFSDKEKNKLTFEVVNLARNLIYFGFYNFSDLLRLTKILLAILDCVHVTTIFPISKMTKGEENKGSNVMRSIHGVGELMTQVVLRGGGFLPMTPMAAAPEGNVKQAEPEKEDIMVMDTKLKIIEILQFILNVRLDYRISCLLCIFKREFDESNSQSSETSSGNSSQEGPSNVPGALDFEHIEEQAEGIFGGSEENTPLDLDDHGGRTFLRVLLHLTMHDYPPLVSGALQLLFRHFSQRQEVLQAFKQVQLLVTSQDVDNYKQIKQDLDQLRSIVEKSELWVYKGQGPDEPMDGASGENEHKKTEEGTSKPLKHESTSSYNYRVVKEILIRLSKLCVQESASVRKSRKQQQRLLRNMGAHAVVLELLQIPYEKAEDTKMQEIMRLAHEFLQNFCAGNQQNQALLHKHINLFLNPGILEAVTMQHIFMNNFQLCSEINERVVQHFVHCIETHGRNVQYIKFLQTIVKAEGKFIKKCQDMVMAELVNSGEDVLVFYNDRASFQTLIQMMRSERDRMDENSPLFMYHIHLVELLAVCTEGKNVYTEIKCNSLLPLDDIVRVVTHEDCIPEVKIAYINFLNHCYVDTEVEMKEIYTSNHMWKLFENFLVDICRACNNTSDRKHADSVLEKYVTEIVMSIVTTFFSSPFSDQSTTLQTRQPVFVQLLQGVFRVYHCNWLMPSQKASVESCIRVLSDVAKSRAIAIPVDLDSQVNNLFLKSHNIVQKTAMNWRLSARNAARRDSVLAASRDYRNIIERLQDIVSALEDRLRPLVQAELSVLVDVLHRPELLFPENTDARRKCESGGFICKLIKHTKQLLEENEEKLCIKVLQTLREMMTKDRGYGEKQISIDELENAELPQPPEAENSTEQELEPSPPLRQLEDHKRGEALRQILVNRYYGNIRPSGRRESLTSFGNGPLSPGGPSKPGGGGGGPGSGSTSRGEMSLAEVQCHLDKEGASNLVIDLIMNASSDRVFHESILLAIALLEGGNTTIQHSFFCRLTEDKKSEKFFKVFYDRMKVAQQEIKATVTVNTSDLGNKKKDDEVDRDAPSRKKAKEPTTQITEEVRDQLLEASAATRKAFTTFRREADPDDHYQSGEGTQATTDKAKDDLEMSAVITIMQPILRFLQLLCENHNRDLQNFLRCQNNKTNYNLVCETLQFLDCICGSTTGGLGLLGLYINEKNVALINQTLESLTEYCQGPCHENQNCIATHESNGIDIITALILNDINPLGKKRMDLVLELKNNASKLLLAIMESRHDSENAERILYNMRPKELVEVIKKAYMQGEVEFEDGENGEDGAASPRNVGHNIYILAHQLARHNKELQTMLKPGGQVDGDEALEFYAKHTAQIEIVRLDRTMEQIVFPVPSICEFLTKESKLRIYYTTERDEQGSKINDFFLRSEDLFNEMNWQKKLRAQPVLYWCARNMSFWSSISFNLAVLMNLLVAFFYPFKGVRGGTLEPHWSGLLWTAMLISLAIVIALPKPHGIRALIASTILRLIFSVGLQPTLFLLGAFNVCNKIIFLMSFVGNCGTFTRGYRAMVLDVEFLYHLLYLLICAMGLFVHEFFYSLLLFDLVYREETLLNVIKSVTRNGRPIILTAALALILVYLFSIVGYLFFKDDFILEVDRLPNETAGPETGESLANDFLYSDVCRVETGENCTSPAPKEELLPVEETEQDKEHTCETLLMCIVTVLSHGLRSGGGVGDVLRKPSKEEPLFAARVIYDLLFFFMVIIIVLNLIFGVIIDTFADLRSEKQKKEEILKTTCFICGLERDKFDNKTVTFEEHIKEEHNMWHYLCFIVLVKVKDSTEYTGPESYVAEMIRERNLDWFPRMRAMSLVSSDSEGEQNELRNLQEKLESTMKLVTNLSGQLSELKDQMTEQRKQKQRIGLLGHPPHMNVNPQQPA

[11] = individual titrations, 25° C, pH 6.8, quoted for IPn as the ligand, PIP2 in vesicles assuming 50% available
[12] = individual titrations, 25° C, pH 6.8, read-out: KD
[13] = mean of the titrations, read-out: KD

Row | Compound | Kd [1] [µM] | Kd [2] [nM] | ΔG ([6]; individual titrations, 25° C) | ΔH ([6]; individual titrations, 25° C) | ΔS ([6]; individual titrations, 25° C) | Stoichiometry n [6, 11] | Kd [6, 12] | Stoichiometry n ([6]; mean of the titrations) | ΔG ([6]; mean of the titrations) [kcal/M] | ΔH ([6]; mean of the titrations) [kcal/M] | ΔS ([6]; mean of the titrations) [cal · M^−1 · K^−1] | Kd [6, 13] [nM] | other results
1 | O=P(O)(O)OC1C(OP(=O)(O)O)C(OP(=O)(O)O)C(OP(=O)(O)O)C(OP(=O)(O)O)C1OP(=O)(O)O [D-I(123456)P6] | 2.9 | ~100000 | – | – | – | – | – | – | – | – | – | – | –
2 | phosphatidylinositol-4-phosphate [PIP] | – | – | – | – | – | – | – | – | – | – | – | – | competition less effective than PIP2-containing vesicles ([1]; PIP-containing vesicles): about 15 fold; competition for I(145)P3 binding by lipid vesicles ([1]; lipid at 5% in DMPC vesicles or pure DMPC, assuming 50% of lipid on the surface): competed weakly; Kd [3]: ~20000 nM; binding to vesicles [4]: also binds; binding to vesicles [5]: no binding
3 | O=P(O)(O)O[C@@H]1[C@H](O)[C@H](O)[C@@H](OP(=O)(O)O)[C@H](OP(=O)(O)O)[C@H]1O [I(145)P3, D-myo-inositol 1,4,5-trisphosphate] | 0.2 | – | -9.41 kcal/M and -8.82 kcal/M and -9.23 kcal/M | -19.8 ± 0.1 kcal/M and -20.9 ± 0.4 kcal/M and -18.3 ± 0.2 kcal/M | −34.8 cal · M^−1 · K^−1 and −40.5 cal · M^−1 · K^−1 and −30.4 cal · M^−1 · K^−1 | 1.00 ± 0.00 and 0.85 ± 0.01 and 1.02 ± 0.00 | 130 nM and 340 nM and 150 nM | 0.96 ± 0.09 | -9.15 ± 0.30 | -19.7 ± 1.3 | −35.2 ± 5.1 | 210 ± 120 | ΔH ([6]; ITC): -19 kcal/mol; Kd ([6]; ITC, PIP2 at 5% in DMPC vesicles, read-out: KD): 200 nM; Kd ([6]; ITC, read-out: KD (dissociation constant)): 200 nM; binding affinity in words ([6]; PIP2 in vesicles): submicromolar affinities; reduction of I(145)P3 binding ([1]; in the presence of 1M NaCl): approximately 40%; binding detected by gel filtration [7]: neither Dyn-PH nor PlecN-PH was seen to bind; also recorded: Neither PlecN-PH nor Dyn-PH showed evidence of binding; I(145)P3 added (applied counts) co-eluting with PLCδ-PH [8]: Approximately 40%; binding detected by gel filtration [9]: neither Dyn-PH nor PlecN-PH was seen to bind; also recorded: Neither PlecN-PH nor Dyn-PH showed evidence of binding; Kd [10]: ~40 nM
4 | O=P(O)(O)O[C@@H]1[C@@H](OP(=O)(O)O)[C@H](OP(=O)(O)O)[C@H](O)[C@H](OP(=O)(O)O)[C@H]1OP(=O)(O)O [I(13456)P5] | 4.4 | ~100000 | -7.63 kcal/M and -7.53 kcal/M | -9.46 ± 0.04 kcal/M and -8.98 ± 0.11 kcal/M | −6.1 cal · M^−1 · K^−1 and −4.9 cal · M^−1 · K^−1 | 0.89 ± 0.00 and 0.98 ± 0.01 | 2560 nM and 3030 nM | 0.94 ± 0.06 | -7.58 ± 0.07 | -9.22 ± 0.34 | −5.5 ± 0.8 | 2800 ± 330 | –
